From patent US11136313B2, “Compounds, compositions, and methods for modulating CFTR” (Proteostasis Therapeutics, Inc., priority 2015, dated 2021) come the findings set out here.

The assay has as its target T1, ΔF508-CFTR (Homo sapiens, UniProt P13569, DEL508-508).
T1 construct: Primary lung epithelial cells homozygous for the Cystic Fibrosis-causing ΔF508 mutation were differentiated for a minimum of 4 weeks; endogenous in cells; host or cells: primary lung epithelial cells (hBE) homozygous for ΔF508, differentiated at an air-liquid interface
As to the kind of experiment: hBE equivalent current (Ieq) assay: AUC of equivalent chloride current after forskolin/VX-770 in primary lung epithelial cells homozygous for ΔF508. It is filed as cell-based. Particulars: relative to CFTR amplifier (Compound A)+VX-809 (3 uM), compound at 10 uM and Compound A at 3 uM, 24 h treatment. The essentials:
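ΔF508/ΔF508 primary human bronchial epithelia, differentiated ≥4 weeks at air-liquid interface, treated basolaterally with compound for 24 h at 37 °C. Transepithelial voltage and conductance by 24-channel current clamp at 36 °C: benzamil, then forskolin plus VX-770 for 27 min, then bumetanide; AUC of equivalent chloride current over vehicle.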

T1 sequence (P13569 with tags, fused parts or gaps DEL508-508): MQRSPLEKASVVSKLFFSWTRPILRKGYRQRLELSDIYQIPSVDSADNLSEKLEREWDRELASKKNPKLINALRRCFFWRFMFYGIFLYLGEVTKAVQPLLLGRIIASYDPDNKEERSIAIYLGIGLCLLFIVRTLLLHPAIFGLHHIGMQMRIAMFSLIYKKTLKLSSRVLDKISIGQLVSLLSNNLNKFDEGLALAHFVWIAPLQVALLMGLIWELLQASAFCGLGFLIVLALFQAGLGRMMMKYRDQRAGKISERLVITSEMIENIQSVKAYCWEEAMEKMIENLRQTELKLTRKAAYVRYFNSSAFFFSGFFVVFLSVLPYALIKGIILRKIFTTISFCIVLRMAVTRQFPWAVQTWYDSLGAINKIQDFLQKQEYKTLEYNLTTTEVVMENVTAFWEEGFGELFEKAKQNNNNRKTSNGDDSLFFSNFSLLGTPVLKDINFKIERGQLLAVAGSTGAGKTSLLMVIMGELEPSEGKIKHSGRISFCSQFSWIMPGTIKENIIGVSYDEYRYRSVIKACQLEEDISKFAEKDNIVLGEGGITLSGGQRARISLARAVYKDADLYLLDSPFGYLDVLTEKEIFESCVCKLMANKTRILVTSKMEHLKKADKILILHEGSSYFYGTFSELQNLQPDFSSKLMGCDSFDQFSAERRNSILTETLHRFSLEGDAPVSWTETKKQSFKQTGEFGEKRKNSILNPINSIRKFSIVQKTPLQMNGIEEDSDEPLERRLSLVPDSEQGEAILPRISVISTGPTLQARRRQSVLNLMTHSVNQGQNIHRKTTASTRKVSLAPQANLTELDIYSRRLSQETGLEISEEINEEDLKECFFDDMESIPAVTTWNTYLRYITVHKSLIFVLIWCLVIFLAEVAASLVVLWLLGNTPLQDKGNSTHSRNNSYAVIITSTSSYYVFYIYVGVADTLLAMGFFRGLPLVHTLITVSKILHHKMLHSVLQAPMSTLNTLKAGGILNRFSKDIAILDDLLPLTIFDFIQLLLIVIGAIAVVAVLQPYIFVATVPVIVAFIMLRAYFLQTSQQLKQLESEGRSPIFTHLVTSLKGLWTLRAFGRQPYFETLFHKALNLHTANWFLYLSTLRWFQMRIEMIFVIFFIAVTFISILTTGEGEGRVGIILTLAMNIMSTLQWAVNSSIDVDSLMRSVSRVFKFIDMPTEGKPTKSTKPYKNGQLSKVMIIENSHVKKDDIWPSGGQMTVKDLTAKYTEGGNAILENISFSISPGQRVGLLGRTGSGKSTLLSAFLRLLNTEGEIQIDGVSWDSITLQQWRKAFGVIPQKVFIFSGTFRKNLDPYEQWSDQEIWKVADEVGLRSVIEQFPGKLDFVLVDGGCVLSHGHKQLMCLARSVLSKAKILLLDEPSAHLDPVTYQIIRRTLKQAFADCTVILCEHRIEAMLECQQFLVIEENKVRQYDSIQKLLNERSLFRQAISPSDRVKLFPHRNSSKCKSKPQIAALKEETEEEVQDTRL

For the compound `Cc1ccc(OCc2ccccc2)c2c(C(=O)O)cc(-c3cc4ccccc4s3)nc12` [Compound 34, 2-(1-Benzothiophen-2-yl)-5-(benzyloxy)-8-methylquinoline-4-carboxylic acid], the Activity result was “++ (activity>50% of CFTR amplifier+VX-809 (3 uM) with compound at 10 uM and Compound A at 3 uM)”. In the case of `CCc1ccc(C)c2nc(-c3oc4ccccc4c3C)cc(C(=O)O)c12` [Compound 113, 5-Ethyl-8-methyl-2-(3-methyl-1-benzofuran-2-yl)quinoline-4-carboxylic acid] it was “+ (activity<50% of an CFTR amplifier (Compound A)+VX-809 (3 uM) with compound at 10 uM and Compound A at 3 uM)”.

As to `CCc1ccc(OCc2ccc(C)cc2)c2c(C(=O)O)cc(-c3csc4ccccc34)nc12` [Compound 189], the Activity result was “++ (activity>50% of CFTR amplifier+VX-809 (3 uM) with compound at 10 uM and Compound A at 3 uM)”.
